For orientation: pIC50 means the negative decadic logarithm of the IC50, by convention in mol/L. The low end stands for a high IC50, the high end for a low IC50.

This is an account of results in article PMC3297001, “Four Eremophilane Sesquiterpenes from the Mangrove Endophytic Fungus Xylaria sp. BL321” (2012).

The assay deals with α-glucosidase. Kind of assay: enzyme assay with PNPG substrate, absorbance at […] nm; activation ([…]) at […], inhibition at higher concentration. Type of assay: biochemical.

Molecules are shown by their SMILES. pIC50: −log10 of the molar value.

The molecule `C=C(C=O)[C@@H]1C[C@@]2(C)C(=CC1=O)[C@H](OC(=O)/C=C/C=C/C(C)CC(C)CC)CC[C@@H]2C(=O)O` (stereo partly shown) [compound 4, 07H239-A] had a pIC50 of 5.18.
